The target of this test is T1, acid-sensing ion channel isoform 1a (ASIC1a) (Rattus norvegicus, UniProt P55926).
T1 construct: gene Asic1
T1 sequence (P55926 1-526): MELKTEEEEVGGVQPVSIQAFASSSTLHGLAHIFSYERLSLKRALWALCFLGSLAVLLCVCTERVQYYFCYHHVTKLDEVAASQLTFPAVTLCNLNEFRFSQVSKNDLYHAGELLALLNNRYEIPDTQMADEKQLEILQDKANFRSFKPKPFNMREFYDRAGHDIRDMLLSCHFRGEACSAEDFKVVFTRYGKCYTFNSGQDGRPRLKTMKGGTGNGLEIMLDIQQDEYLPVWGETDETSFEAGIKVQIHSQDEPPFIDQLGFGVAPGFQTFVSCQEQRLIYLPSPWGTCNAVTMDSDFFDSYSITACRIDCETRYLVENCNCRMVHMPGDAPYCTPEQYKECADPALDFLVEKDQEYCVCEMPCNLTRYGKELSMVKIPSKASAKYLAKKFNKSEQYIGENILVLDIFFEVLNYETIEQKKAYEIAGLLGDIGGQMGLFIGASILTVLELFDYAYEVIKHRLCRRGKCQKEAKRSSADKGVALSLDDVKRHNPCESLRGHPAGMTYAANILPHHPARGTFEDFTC
In words: two-electrode voltage clamp, Xenopus laevis oocytes expressing rat ASIC1a, pH […] stimulus from pH […]. Conditions: read-out: pH 6.85. The format is cell-based.

Take `COc1cc2c(cc1O)C(Cc1ccc(O)c(Oc3ccc(C[C@@H]4NCCc5cc(OC)c(O)cc54)cc3)c1)NCC2` (stereo partly shown) [LIN, lindoldhamine]: the IC50 was 9 ± 0.3 µM.

These data come from publication PMC6783924, “Alkaloid Lindoldhamine Inhibits Acid-Sensing Ion Channel 1a and Reveals Anti-Inflammatory Properties” (Toxins, 2019).
